Reference: US8378104B2 (OSI Pharmaceuticals, LLC, priority 2010, dated 2013)
Structures can show the parent of a compound that is named as a salt. Where two headings read alike, the source gives them in different places.

How the values were obtained:
pJNK in HCT-116 cells = assay: Phospho-JNK (Thr183/Tyr185) Meso Scale ELISA assay, TNFα-stimulated HCT-116 cells; type: cell-based; conditions: Homo sapiens, read-out: mean HCT-116 pJNK ELISA IC50 (Col. B)
Description: Detailed below are ELISA assays for pJNK and p38, and a TAK1 biochemical assay. […] In Table 1, Col.
Phospho-JNK (Thr183/Tyr185) Meso Scale ELISA Assay
• 1. Plate HCT-116 cells at 25,000 per well in 100 uL in 96 well clear dishes in normal growth medium. Day 2: • 1. Aspirate medium and replace with 90 μl reduced serum growth medium (1% FCS), incubate for 2 hours at 37° C. • 2. Make drugs at 10× in reduced serum medium and add 10 uL per well. • 3. Incubate at 37° C. for 4 hrs. • 4. Bring capture plates to room temperature. • 5. Block with 150 μl Blocking Solution (provided with kit) (600 mg Blocker A into 20 mL 1× Wash Buffer per plate) at room temperature with shaking. • 6. Wash plates 4× with 200 μl 1× wash buffer (10× provided with kit) before transferring lysates. • 7. Dilute TNFα to […] in reduced serum medium (this makes a 10× working stock). • 8. Add 10 μl TNFα to all wells except negative control wells, final concentration is 10 ng/mL. • 9. Incubate at 37° C. for 10 minutes. • 10. Remove medium by flicking into sink • 11. Wash cells with 100 uL ice cold PBS. • 12. Remove PBS by flicking into sink and patting on paper towels. • 13. Lyse cells in 50 μl ice cold 1× Complete Lysis Buffer plus Phosphatase and Protease inhibitors (all provided with kit) (10 mL Tris Lysis Buffer+200 μl Protease inhibitor solution+100 μl Phosphatase inhibitor I+100 μl Phosphatase inhibitor II). • 14. Incubate with shaking at 4° C. for 30 minutes. • 15. Transfer 45 μl to capture plate, cover with adhesive cover, and incubate at 4° C. over night with shaking. • Day 3: • 1. Wash plates 4× with 200 μl 1× wash buffer (10× provided with kit). • 2. […] Incubate at room temperature with shaking for 1 hour. • 4. Wash 4× with 200 μl 1× Wash Buffer. • 5. […] Read on Sector Imager. Phospho-p38 Meso Scale ELISA Assay Day 1: • 1. Plate HCT-116 cells at 25,000 per well in 100 uL in 96 well clear dishes in normal growth medium. zday 2: • 1. Aspirate medium and replace with 90 μl reduced serum growth medium (1% FCS), incubate for 2 hours at 37° C. • 2. Make drugs at 10× in reduced serum medium and add 10 uL per well. • 3. Incubate at 37° C. for 4 hrs. • 4. Bring capture plates to room temperature. • 5. Block with 150 μl Blocking Solution (provided with kit) (600 mg Blocker A into 20 mL 1× Wash Buffer per plate) at room temperature with shaking. • 6. Wash plates 4× with 200 μl 1× wash buffer (10× provided with kit) before transferring lysates. • 7. Dilute TNFα to […] in reduced serum medium (this makes a 10× working stock). • 8. Add 10 μl TNFα to all wells except negative control wells, final concentration is 10 ng/mL. • 9. Incubate at 37° C. for 10 minutes. • 10. Remove medium by flicking into sink • 11. Wash cells with 100 uL ice cold PBS. • 12. Remove PBS by flicking into sink and patting on paper towels. • 13. Lyse cells in 50 μl ice cold 1× Complete Lysis Buffer plus phosphatase and protease inhibitors (all provided with kit) (10 mL Tris Lysis Buffer+200 μl Protease inhibitor solution+100 μl Phosphatase inhibitor I+100 μl Phosphatase inhibitor II). • 14. Incubate with shaking at 4° C. for 30 minutes. • 15. Dilute lysates before transferring to capture plate with 100 μl Complete p38 Lysate • Dilution Buffer (provided with kit) (10 mL of Diluent 20±200 μl Protease inhibitor solution+100 μl Phosphatase inhibitor I+100 μl Phosphatase inhibitor II). • 16. Transfer 50 μl of diluted lysates to capture plate, cover with adhesive cover, and incubate at 4° C. over night with shaking. Day 3: • 1. Wash plates 4× with 200 μl 1× wash buffer (10× provided with kit). • 2. […] Incubate at room temperature with shaking for 1 hour. • 4. Wash 4× with 200 μl 1× Wash Buffer. • 5. […] Read on Sector Imager. TAK1 Biochemical Assay

TAK1-TAB1 fusion protein = molecular target: T1, TAK1-TAB1 fusion protein (Homo sapiens, UniProt O43318); assay: TAK1 biochemical assay (AlphaScreen, GST-MAP2K7 substrate)
T1 construct: purchased Carna
T1 sequence (O43318 with tags, fused parts or gaps limits assumed): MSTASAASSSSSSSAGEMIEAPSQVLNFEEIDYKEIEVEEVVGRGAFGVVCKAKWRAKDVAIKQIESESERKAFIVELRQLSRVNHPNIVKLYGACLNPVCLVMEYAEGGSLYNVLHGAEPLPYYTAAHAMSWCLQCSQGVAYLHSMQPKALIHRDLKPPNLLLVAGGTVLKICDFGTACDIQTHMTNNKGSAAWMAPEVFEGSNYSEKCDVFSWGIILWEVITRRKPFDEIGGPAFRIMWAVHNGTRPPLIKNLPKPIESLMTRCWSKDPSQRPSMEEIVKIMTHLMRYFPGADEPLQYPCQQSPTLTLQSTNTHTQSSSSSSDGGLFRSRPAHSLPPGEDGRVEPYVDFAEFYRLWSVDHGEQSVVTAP

[1] = TAK1-TAB1 fusion protein, GST-MAP2K7 substrate, read-out: mean TAK1 IC50 (Col. A)

Row | IC50 (pJNK in HCT-116 cells) | IC50 (TAK1-TAB1 fusion protein; [1]) | IC50 (TAK1-TAB1 fusion protein) | Structure (SMILES)
1 | < 100 nM | < 100 nM |  | CC(=O)N1CCC(n2cc(-c3cnc(N)c4oc(-c5cccc6sncc56)cc34)cn2)CC1 [Example 241, 1-(4-{4-[7-amino-2-(1,2-benzothiazol-4-yl)furo[2,3-c]pyridin-4-yl]-1H-pyrazol-1-yl}piperidin-1-yl)ethanone diformate Salt]
2 | < 100 nM | < 100 nM |  | Nc1ncc(-c2cnn([C@H]3CC[C@H](O)CC3)c2)c2cc(-c3cccc4sncc34)oc12 [Example 242, trans-4-{4-[7-amino-2-(1,2-benzothiazol-4-yl)furo[2,3-c]pyridin-4-yl]-1H-pyrazol-1-yl}cyclohexanol Diformate Salt]
3 | < 100 nM | < 100 nM |  | Nc1ncc(-c2cnn([C@H]3CC[C@H](O)CC3)c2)c2cc(-c3cccn4cncc34)oc12 [Example 365, trans-4-{4-[7-amino-2-(imidazo[1,5-a]pyridin-8-yl)furo[2,3-c]pyridin-4-yl]-1H-pyrazol-1-yl}cyclohexanol.diformate]
4 | < 100 nM | < 100 nM |  | CNc1nc2cccc(-c3cc4c(-c5cnn(C6CCN(C(C)=O)CC6)c5)cnc(N)c4o3)c2s1 [Example 350, 1-[4-(4-{7-amino-2-[2-(methylamino)-1,3-benzothiazol-7-yl]furo[2,3-d]pyridin-4-yl}-1H-pyrazol-1-yl)piperidin-1-yl]ethanone trifluoroacetate]
5 | 100 to 1000 nM | 100 to 1000 nM |  | CNc1ncc(-c2cnn([C@H]3CC[C@H](O)CC3)c2)c2cc(-c3cccc4cnsc34)oc12 [Example 282, trans-4-{4-[2-(1,2-benzothiazol-7-yl)-7-(methylamino)furo[2,3-c]pyridin-4-yl]-1H-pyrazol-1-yl}cyclohexanol]
6 | < 100 nM | < 100 nM |  | Nc1ncc(-c2cnn([C@H]3CC[C@H](O)CC3)c2)c2cc(-c3c(F)ccc4nnsc34)oc12 [Example 272, trans-4-{4-[7-amino-2-(6-fluoro-1,2,3-benzothiadiazol-7-yl)furo[2,3-c]pyridin-4-yl]-1H-pyrazol-1-yl}cyclohexanol diformate salt]
7 | 100 to 1000 nM | 100 to 1000 nM |  | Nc1ncc(-c2cnn([C@H]3CC[C@H](O)CC3)c2)c2c(Cl)c(-c3cccc4cnsc34)oc12 [Example 285, trans-4-{4-[7-amino-2-(1,2-benzothiazol-7-yl)-3-chlorofuro[2,3-c]pyridin-4-yl]-1H-pyrazol-1-yl}cyclohexanol trifluoroacetic Acid Salt]
8 | 100 to 1000 nM | < 100 nM |  | CC(=O)N1CCC(n2cc(-c3cnc(N)c4oc(-c5csc6cnncc56)cc34)cn2)CC1 [Example 261, 1-(4-{4-[7-amino-2-(thieno[2,3-d]pyridazin-3-yl)furo[2,3-c]pyridin-4-yl]-1H-pyrazol-1-yl}piperidin-1-yl)ethanone diformate]
9 | < 100 nM | < 100 nM |  | Nc1ncc(-c2cnn([C@H]3CC[C@H](O)CC3)c2)c2c(Cl)c(-c3cccc4ncsc34)oc12 [Example 288, trans-4-{4-[7-amino-2-(1,3-benzothiazol-7-yl)-3-chlorofuro[2,3-c]pyridin-4-yl]-1H-pyrazol-1-yl}cyclohexanol]
10 | < 100 nM | < 100 nM |  | CNc1ncc(-c2cnn(C3CCN(C(C)=O)CC3)c2)c2cc(-c3cccc4nnsc34)oc12 [Example 278, 1-(4-{4-[2-(1,2,3-benzothiadiazol-7-yl)-7-(methylamino)furo[2,3-c]pyridin-4-yl]-1H-pyrazol-1-yl}piperidin-1-yl)ethanone]
11 | 100 to 1000 nM | 100 to 1000 nM |  | CC(=O)N1CCC(n2cc(-c3cnc(N)c4oc(-c5cccc6cnncc56)cc34)cn2)CC1 [Example 367, 1-(4-{4-[7-amino-2-(phthalazin-5-yl)furo[2,3-c]pyridin-4-yl]-1H-pyrazol-1-yl}piperidin-1-yl)ethanone]
12 | < 100 nM | < 100 nM |  | Nc1ncc(-c2cnn(C3CCN(C(=O)C4CC4)CC3)c2)c2cc(-c3csc4cnccc34)oc12 [Example 228, (4-{4-[7-amino-2-(thieno[2,3-c]pyridin-3-yl)furo[2,3-c]pyridin-4-yl]-1H-pyrazol-1-yl}piperidin-1-yl)(cyclopropyl)methanone diformate salt]
13 | < 100 nM | < 100 nM |  | CC(=O)N1CCC(n2cc(-c3cnc(N)c4oc(-c5cc(F)cc6cnsc56)cc34)cn2)CC1 [Example 237, 1-(4-{4-[7-amino-2-(5-fluoro-1,2-benzothiazol-7-yl)furo[2,3-c]pyridin-4-yl]-1H-pyrazol-1-yl}piperidin-1-yl)ethanone diformate salt]
14 | < 100 nM | < 100 nM |  | CNc1ncc(-c2cnn([C@H]3CC[C@H](O)CC3)c2)c2cc(-c3csc4cnc(F)cc34)oc12 [Example 283, trans-4-{4-[2-(5-fluorothieno[2,3-c]pyridin-3-yl)-7-(methylamino)furo[2,3-c]pyridin-4-yl]-1H-pyrazol-1-yl}cyclohexanol]
15 | < 100 nM | < 100 nM |  | COCc1nc2cccc(-c3cc4c(-c5cnn([C@H]6CC[C@H](O)CC6)c5)cnc(N)c4o3)c2s1 [Example 349, trans-4-(4-{7-amino-2-[2-(methoxymethyl)-1,3-benzothiazol-7-yl]furo[2,3-c]pyridin-4-yl}-1H-pyrazol-1-yl)cyclohexanol Trifluoroacetate (salt)]
16 | < 100 nM | < 100 nM |  | Cc1cc(-c2cc3c(-c4cnn([C@H]5CC[C@H](O)CC5)c4)cnc(N)c3o2)c2snnc2c1 [Example 373, trans-4-{4-[7-amino-2-(5-methyl-1,2,3-benzothiadiazol-7-yl)furo[2,3-c]pyridin-4-yl]-1H-pyrazol-1-yl}cyclohexanol]
17 | 100 to 1000 nM | < 100 nM |  | Nc1ncc(-c2cnn([C@@H]3CC[C@@H](O)C3)c2)c2cc(-c3csc4cnccc34)oc12 [Example 308, (1R,3R)-3-[4-(7-amino-2-thieno[2,3-c]pyridin-3-yl-furo[2,3-c]pyridin-4-yl)-pyrazol-1-yl]-cyclopentanol]
18 | < 100 nM |  | < 100 nM | Nc1ncc(-c2cnn([C@H]3CC[C@H](O)CC3)c2)c2c(Cl)c(-c3cccc4nnsc34)oc12 [Example 286, trans-4-{4-[7-amino-2-(1,2,3-benzothiadiazol-7-yl)-3-chlorofuro[2,3-c]pyridin-4-yl]-1H-pyrazol-1-yl}cyclohexanol]

Row | Structure (SMILES) | IC50 (pJNK in HCT-116 cells) | IC50 (TAK1-TAB1 fusion protein; [1]) | IC50 (TAK1-TAB1 fusion protein)
19 | CC(=O)N1[C@@H]2CC[C@H]1C[C@H](n1cc(-c3cnc(N)c4oc(-c5csc6cnccc56)cc34)cn1)C2 [Example 325, 1-[(3-exo)-3-{4-[7-amino-2-(thieno[2,3-c]pyridin-3-yl)furo[2,3-c]pyridin-4-yl]-1H-pyrazol-1-yl}-8-azabicyclo[3.2.1]oct-8-yl]ethanone] | < 100 nM | < 100 nM | 
